Measurements from US10040838B2, “CRHR2 peptide agonists and uses thereof” (JANSSEN PHARMACEUTICA NV, priority 2008, dated 2018).
Where “and” joins values, the source holds several entries; their conditions need not be identical. Equal entries are not always repeated. Where two headings read alike, the source gives them in different places. No end group written: not given here.

How the values were obtained:
[1] = target: T1, CRHR1 (Homo sapiens, UniProt P34998); assay: cAMP assay in h-CRHR1 transfected SK-N-MC cells; assay type: cell-based; set-up: expressed in transfected cells; conditions: for Experimental nH: Table 11, Hill slope
T1 sequence (P34998 24-415): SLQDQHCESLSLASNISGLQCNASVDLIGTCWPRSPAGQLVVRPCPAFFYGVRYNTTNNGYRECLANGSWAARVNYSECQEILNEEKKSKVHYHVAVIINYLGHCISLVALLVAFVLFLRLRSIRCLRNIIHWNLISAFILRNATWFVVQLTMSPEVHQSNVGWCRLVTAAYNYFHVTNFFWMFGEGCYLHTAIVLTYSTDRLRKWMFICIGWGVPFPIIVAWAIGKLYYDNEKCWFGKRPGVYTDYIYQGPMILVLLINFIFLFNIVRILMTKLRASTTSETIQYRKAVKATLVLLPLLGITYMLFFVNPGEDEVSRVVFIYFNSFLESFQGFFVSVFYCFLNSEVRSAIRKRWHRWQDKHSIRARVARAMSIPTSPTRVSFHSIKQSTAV
Procedure: Human CRHR1 (accession number X72304) or CRHR2 (accession number U34587) were cloned into pcDNA3.1/Zeo expression vector and stably transfected into SK-N-MC cells by electroporation. Cells were maintained in MEM w/Earl's Salt with 10% FBS, 50 I.U. penicillin, 50 μg/ml streptomycin, 2 mM L-glutamine, 1 mM sodium pyruvate and 0.1 mM nonessential amino acids, 600 μg/ml G418. Cells were grown at 37° C. in 5% CO2.
Cells were plated in 96-well tissue culture dishes (Biocoat from BD Biosciences) overnight at 50,000 cell/well. Cells were washed with PBS then resuspended in DMEM F-12 without phenol red, containing 10 μM isobutylmethylxanthine (IBMX). Cells were incubated with the peptides at concentrations ranging from 1 pM to 10 μM for 60 min at 37° Celsius. […] Forskolin (10 μM), a direct stimulant of adenylate cyclase, was used as positive control. The assays were stopped by the addition of 0.5 M HCl and mixing by orbital rotation for 2 h at 4° Celsius.
Transfected SK-N-MC cells were plated in 96-well Biocoat tissue culture dishes (BD Biosciences, San Jose, Calif., U.S.A) overnight at 50,000 cell/well. […]
Individual agonist concentration-response curve data were fitted to the Hill equation, see formula below, using GraphPad Prism (Graphpad Software, La Jolla, Calif., U.S.A.), to provide estimates of agonist concentration needed to generate one-half maximal response (A50), and the maximal asymptote (α) and Hill slope (nH) parameters. In this equation, [A] is the agonist concentration and E is the measured effect:
For display purposes the mean fitted parameter estimates were used to generate a single E/[A] curve shown superimposed on the mean experimental data. Potency estimates for agonists, pA50, are expressed as the negative logarithm of the midpoint of each curve and listed with their standard error of measurement (SEM).
Human and rat peptides (see Table 10) were used on the stimulation of h-CRHR1 or h-CRHR2 transfected SK-N-MC cells in the cAMP flash plate assay. […] Curves were calculated using non-linear regression sigmoidal concentration-response analysis calculation in GraphPad Prism.

[2] = target: T1, CRHR1; assay: Radioligand binding CRHR1 assay, [125I]-(Tyr0)-sauvagine; set-up: expressed in transfected cells; host or cells: cell membranes; conditions: Table 15; slope of competition curve
Procedure: The solution was then homogenized with a Polytron tissue grinder at a setting of 10 and 7×3 s (Brinkmann Instruments, Westbury, N.Y.). The homogenate was centrifuged at 4° Celsius at 800×g for 5 min with the pellet being discarded. […] All binding assays were conducted in 96-well Multiscreen GF/B filter plates (Millipore, Billericay, Mass., U.S.A.) that were pre-soaked in assay buffer with 0.3% PEI for 1 hour. […] The bound radioactivity was separated by filtration using a Multiscreen Resist manifold (Millipore Corp., Billerica, Mass., U.S.A). The filters were washed three times with ice-cold PBS at pH 7.5 and radioactivity retained on the filters was quantified by its liquid scintillation measured by a TopCount counter (Packard BioScience, Boston, Mass., U.S.A). All experiments were performed in triplicate.

[3] = target: T2, h-CRHR1 (Homo sapiens, UniProt P34998); conditions: h-CRHR1 transfected HEK-293 cells, approximated from concentration response curves, Hsu et al. 2001; cited from earlier work
T2 sequence (P34998 24-415): T1 sequence (P34998 24-415)

[4] = target: T3, h-CRHR2b (Homo sapiens, UniProt Q13324); conditions: h-CRHR2b transfected HEK-293 cells, approximated from concentration response curves, Hsu et al. 2001; cited from earlier work
T3 sequence (Q13324 1-438 isoform Q13324-2): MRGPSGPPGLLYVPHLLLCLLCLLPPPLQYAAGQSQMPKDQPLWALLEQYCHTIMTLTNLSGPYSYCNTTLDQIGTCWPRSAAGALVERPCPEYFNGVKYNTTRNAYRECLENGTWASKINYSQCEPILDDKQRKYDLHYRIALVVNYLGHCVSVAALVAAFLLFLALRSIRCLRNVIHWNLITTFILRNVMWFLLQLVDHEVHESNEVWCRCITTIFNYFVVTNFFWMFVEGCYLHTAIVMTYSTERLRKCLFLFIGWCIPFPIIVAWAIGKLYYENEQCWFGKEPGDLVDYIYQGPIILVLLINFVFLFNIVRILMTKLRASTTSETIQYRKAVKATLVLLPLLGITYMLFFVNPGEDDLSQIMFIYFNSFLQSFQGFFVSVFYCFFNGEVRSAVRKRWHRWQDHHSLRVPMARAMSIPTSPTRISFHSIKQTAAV

[5] = tested on: Langendorff perfused rabbit heart; assay: Retrograde-perfused Langendorff rabbit heart assay; conditions: bolus into the perfusion block
Procedure: The effect of h-SCP (SEQ ID NO:1) on heart rate (HR), left ventricular (LV) contraction, and vascular tone was assessed in a retrograde-perfused Langendorff rabbit heart assay.

Compound	Experimental nH [1]	Experimental αmax ([1]; Table 11, maximal asymptote)	CRHR1 nH [2]	Published pA50 [3]	Published pA50 [4]	Experimental nH ([1]; listed as h-SRP)	EC50 ([5]; read-out: concentration for 50% response, decrease in coronary perfusion pressure (CPP))	EC50 ([5]; read-out: concentration for 50% response, increase in heart rate)	EC50 ([5]; read-out: concentration for 50% response, increase in left ventricular developed pressure (dP/dtmax))
CC[C@H](C)[C@H](NC(=O)[C@H](CO)NC(=O)[C@H](CC(C)C)NC(=O)[C@@H]1CCCN1C(=O)[C@@H]1CCCN1C(=O)[C@H](CC(=O)O)NC(=O)[C@@H](N)CC(=O)O)C(=O)N[C@@H](CC(=O)O)C(=O)N[C@@H](CC(C)C)C(=O)N[C@H](C(=O)N[C@@H](Cc1ccccc1)C(=O)N[C@@H](Cc1c[nH]cn1)C(=O)N[C@@H](CC(C)C)C(=O)N[C@@H](CC(C)C)C(=O)N[C@@H](CCCNC(=N)N)C(=O)N[C@H](C(=O)N[C@@H](CC(C)C)C(=O)N[C@@H](CC(C)C)C(=O)N[C@@H](CCC(=O)O)C(=O)N[C@@H](CC(C)C)C(=O)N[C@@H](C)C(=O)N[C@@H](CCCNC(=N)N)C(=O)N[C@H](C(=O)N[C@@H](CCC(N)=O)C(=O)N[C@@H](CO)C(=O)N[C@@H](CCC(N)=O)C(=O)N[C@@H](CCCNC(=N)N)C(=O)N[C@@H](CCC(=O)O)C(=O)N[C@@H](CCCNC(=N)N)C(=O)N[C@@H](C)C(=O)N[C@@H](CCC(=O)O)C(=O)N[C@@H](CCC(N)=O)C(=O)N[C@@H](CC(N)=O)C(=O)N[C@@H](CCCNC(=N)N)C(=O)N[C@H](C(=O)N[C@H](C(=O)N[C@@H](Cc1ccccc1)C(=O)N[C@@H](CC(=O)O)C(=O)N[C@@H](CO)C(=O)N[C@H](C(N)=O)C(C)C)[C@@H](C)CC)[C@@H](C)CC)[C@@H](C)O)[C@@H](C)O)[C@@H](C)O [SEQ ID NO: 114, DDPPLSIDLTFHLLRTLLELARTQSQRERAEQNRIIFDSV-NH2]	1.15	99.61	0.91 ± 0.27	–	–	–	–	–	–
HPGSRIVLSLDVPIGLLQILLEQARARAAREQATTNARILARV-NH2 [SEQ ID NO: 117, HPGSRIVLSLDVPIGLLQILLEQARAPAAREQATTNARILARV-NH2, reference compound]	–	–	–	>7^3	~9^4	1.61 and 1.33 and 1.26	–	–	–
TKFTLSLDVPTNIMNLLFNIAKAKNLRAQAAANAHLMAQI-NH2 [SEQ ID NO: 1, TKFTLSLDVPTNIMNLLFNIAKAKNLRAQAAANAHLMAQI-NH2, reference compound]	–	–	1.16 ± 0.65	–	~9^4	–	46 nM	52 nM	9.9 nM
